The values that follow come from US20260022142A1, “MACROCYCLIC IMMUNOMODULATORS” (Bristol-Myers Squibb Company, priority 2022, published 2026).

Molecules are shown by their SMILES. Bridge positions count the residues as written; N and C are the ends. Square brackets hold non-standard residues; d marks the D form. Peptide text beside a SMILES is read from it. * marks the point of attachment. ξ: configuration not given here. Phe(4-COOH) = N[C@@H](Cc1ccc(C(=O)O)cc1)C(=O)O; Bip = N[C@@H](Cc1ccc(-c2ccccc2)cc1)C(=O)O; Phe(3-Me) = Cc1cccc(C[C@H](N)C(=O)O)c1; Cha = N[C@@H](CC1CCCCC1)C(=O)O; Cit = NC(=O)NCCC[C@H](N)C(=O)O; Thr(3ξ) = CC(O)[C@H](N)C(=O)O; NMeNle = CCCC[C@H](NC)C(=O)O; Carboxymethyl = O=C(O)C*; Nle = CCCC[C@H](N)C(=O)O; Orn = NCCC[C@H](N)C(=O)O; Aun = NCCCCCCCCCCC(=O)O; Dab = NCC[C@H](N)C(=O)O; Dap = NC[C@H](N)C(=O)O

For the assay, the target named is T1, PD-1/PD-L1 interaction (PE-labeled human PD-L1-Ig binding to Jurkat cell line over-expressing human PD-1) (Homo sapiens, UniProt Q15116).
T1 construct: expressed in transfected cells; host or cells: Jurkat
T1 sequence (Q15116 25-288): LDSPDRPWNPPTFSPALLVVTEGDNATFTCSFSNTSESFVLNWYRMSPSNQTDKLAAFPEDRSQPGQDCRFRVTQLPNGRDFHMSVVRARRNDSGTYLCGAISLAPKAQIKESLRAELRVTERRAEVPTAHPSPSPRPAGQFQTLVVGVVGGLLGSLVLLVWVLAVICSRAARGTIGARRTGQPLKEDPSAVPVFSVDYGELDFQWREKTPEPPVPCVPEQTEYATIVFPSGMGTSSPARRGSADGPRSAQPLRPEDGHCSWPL
Nature of the assay: Jurkat-PD-1 Cell Binding High-Content Screening Assay (CBA). The conditions noted are these: Jurkat cell line over-expressing human PD-1; PE-labeled PD-L1-Ig 20 nM final; read-out: Jurkat hPD1-PDL1 IC50. The class given is cell-based. In a few lines: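 Jurkat cells over-expressing human PD-1 (8×10^3 per well, DMEM/10% FCS) preincubated with compound 2 h at 37° C, then PE-labeled human PD-L1-Ig (20 nM final) added for 1 h. Cells fixed with paraformaldehyde, Hoechst-stained, and bound fluorescence quantified by high-content imaging.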
Regarding `Cc1cccc(C[C@@H]2NC(=O)[C@H](CC(=O)O)NC(=O)[C@H](Cc3ccc(OCC(=O)O)cc3)NC(=O)[C@H](C(C)O)NC(=O)CSC[C@@H](C(=O)N[C@@H](CCCCN)C(=O)NCCCCCCCCCCC(=O)O)NC(=O)[C@H](CCCCN)NC(=O)[C@H](C(C)C)NC(=O)[C@H](CC3CCCCC3)NC(=O)[C@H](CCN)NC(=O)[C@@H](CC(C)C)NC(=O)[C@H](CCCN)NC(=O)[C@H](CCCNC(N)=O)NC(=O)[C@H](Cc3ccc(-c4ccccc4)cc3)NC(=O)[C@H](C(C)C)NC2=O)c1` (stereo partly drawn) [Compound 3469] ({CH2CO}-[Thr(3ξ)]Y(Carboxymethyl)D[Phe(3-Me)]V[Bip][Cit][Orn][dL][Dab][Cha]VKCK[Aun]-OH; thioether N-14), the 50% inhibitory concentration (IC50) was determined as 16.9 nM. For the molecule `CCCC[C@H]1C(=O)N[C@@H](Cc2ccc(OCC(=O)O)cc2)C(=O)N[C@@H](CC(=O)O)C(=O)N[C@@H](Cc2cccc(C)c2)C(=O)N[C@@H](C(C)C)C(=O)N[C@@H](Cc2ccc(-c3ccccc3)cc2)C(=O)N[C@@H](CCCNC(N)=O)C(=O)N[C@@H](CCCN)C(=O)N[C@H](CC(C)C)C(=O)N[C@@H](CCN)C(=O)N[C@@H](CC2CCCCC2)C(=O)N[C@@H](C(C)C)C(=O)N[C@@H](C(C)O)C(=O)N[C@H](C(=O)N[C@@H](CCN)C(=O)NCCCCCCCCCCC(=O)O)CSCC(=O)N1C` (stereo partly drawn) [Compound 3555] ({CH2CO}-[NMeNle]Y(Carboxymethyl)D[Phe(3-Me)]V[Bip][Cit][Orn][dL][Dab][Cha]V[Thr(3ξ)]C[Dab][Aun]-OH; thioether N-14), the IC50 stood at 42.8 nM. For `CCCC[C@@H]1NC(=O)[C@H](C(C)C)NC(=O)[C@H](CC2CCCCC2)NC(=O)[C@H](CCN)NC(=O)[C@@H](CC(C)C)NC(=O)[C@H](CCCN)NC(=O)[C@H](Cc2ccc(O)cc2)NC(=O)[C@H](Cc2ccc(-c3ccccc3)cc2)NC(=O)[C@H](C(C)C)NC(=O)[C@H](Cc2cccc(C)c2)NC(=O)[C@H](CC(=O)O)NC(=O)[C@H](Cc2ccc(OCC(=O)O)cc2)NC(=O)[C@H](CN)NC(=O)CSC[C@@H](C(=O)N[C@@H](CCN)C(=O)NCCCCCCCCCCC(=O)O)NC1=O` [Compound 2720] ({CH2CO}-[Dap]Y(Carboxymethyl)D[Phe(3-Me)]V[Bip]Y[Orn][dL][Dab][Cha]V[Nle]C[Dab][Aun]-OH; thioether N-14), the IC50 was determined as 135 nM. Next, `CC(C)C[C@@H]1NC(=O)[C@H](Cc2c[nH]c3ccccc23)NC(=O)[C@H](CC(=O)O)NC(=O)[C@H](Cc2ccc(C(=O)O)cc2)NC(=O)[C@H](Cc2ccc(OCC(=O)O)cc2)NC(=O)CSC[C@@H](C(=O)N[C@@H](CCCNC(=N)N)C(=O)NCCCCCCCCCCC(=O)O)NC(=O)[C@H](CCCNC(N)=O)NC(=O)[C@H](C(C)C)NC(=O)[C@H](CC2CCCCC2)NC(=O)[C@H](CCN)NC(=O)[C@@H](CC(C)C)NC(=O)[C@H](CCCN)NC(=O)[C@H](Cc2ccc(O)cc2)NC(=O)[C@H](Cc2ccc(-c3ccccc3)cc2)NC1=O` [Compound 1237] ({CH2CO}-Y(Carboxymethyl)[Phe(4-COOH)]DWL[Bip]Y[Orn][dL][Dab][Cha]V[Cit]CR[Aun]-OH; thioether N-14): 70.6 nM; `Cc1cccc(C[C@@H]2NC(=O)[C@H](CC(=O)O)NC(=O)[C@H](Cc3ccc(OCC(=O)O)cc3)NC(=O)[C@H](CN)NC(=O)CSC[C@@H](C(=O)N[C@@H](CCN)C(=O)NCCCCCCCCCCC(=O)O)NC(=O)[C@@H](CCC(N)=O)NC(=O)[C@H](C(C)C)NC(=O)[C@H](CC(C)C)NC(=O)[C@H](CCN)NC(=O)[C@@H](CC(C)C)NC(=O)[C@H](CCCN)NC(=O)[C@H](Cc3ccc(O)cc3)NC(=O)[C@H](Cc3ccc(-c4ccccc4)cc3)NC(=O)[C@H](C(C)C)NC2=O)c1` [Compound 2770] ({CH2CO}-[Dap]Y(Carboxymethyl)D[Phe(3-Me)]V[Bip]Y[Orn][dL][Dab]LV[dQ]C[Dab][Aun]-OH; thioether N-14): 37.8 nM.
